Measurements reported in patent US7238716B2, “Alkanoic acid derivatives process for their production and use thereof” (Takeda Pharmaceuticals Company Limited, priority 2000, dated 2007).
Read-outs that look alike come from different tables or passages of the source.

Experiments:
KKAY mice = assay: Hypoglycemic and hypolipidemic actions in mice (Test Example 1); format: in vivo; conditions: Mus musculus, po, 96 h, four days; for inhibition in vivo at 0.005 %: 0.005% in powdery diet; for inhibition in vivo at 0.01 %: 0.01% in powdery diet
Description: Test compounds were mixed in a powdery diet (CE-2, Japan Clea) at the concentration of 0.01% (compounds of Examples 7, 26, 29, 32) or 0.005% (compounds of Examples 1, 11, 15, 18, 24, 36, 37, 41, 48, 50, 51, 52, 58, 62, 79, 83, 88, 90, 91, 92, 93, 97, 107, 110, 115, 119, 122, 125, 129 and 130), and freely given to KKAY mice (11 to 12 weeks old, 5 mice in a group), a model of type 2 diabetes mellitus, for four days. During this period, water was given freely. Blood was sampled from orbital venous plexus, and glucose and triglyceride levels in plasma separated from blood were determined enzymatically using L type Wako Glu2 (Wako Pure Chemical Industries, Ltd.) or L type Wako TG.H (Wako Pure Chemical Industries, Ltd.), respectively.
In the Table, “hypoglycemic action (%)” means a percent reduction (%) of the glucose level in the test compound administration group when that of the test compound non-administration group is taken as 100%. In addition, the “hypolipidemic action (%)” means a percent reduction (%) of the triglyceride level in the test compound administration group when that of the test compound non-administration group is taken as 100%.

KKA^y mice = assay: Total cholesterol lowering action and plasma anti-arteriosclerosis index enhancing action in mice (Test Example 2); format: in vivo; conditions: Mus musculus, po, 96 h, four days; for change in vivo at 0.005 % / change in vivo at 0.01 %: percent increase of [(HDL cholesterol/total cholesterol)×100] vs non-administration group; for change in vivo at 0.005 % / inhibition in vivo at 0.005 %: 0.005% in powdery diet; for inhibition in vivo at 0.005 % / inhibition in vivo at 0.01 %: percent reduction of plasma total cholesterol level vs non-administration group; for change in vivo at 0.01 % / inhibition in vivo at 0.01 %: 0.01% in powdery diet
Description: Test compounds were mixed in a powdery diet (CE-2, Japan Clea) the concentration of 0.01% (compounds of Examples 7, 26, 29 and 32) or 0.005% (compounds of Examples 1, 11, 15, 18, 24, 36, 37, 41, 48, 50, 51, 52, 58, 62, 79, 88, 91, 92, 93, 97, 107, 110, 129 and 130), and freely given to KKA^y mice (11 to 12 weeks old, 5 mice per group), a model of type-2 diabetes mellitus, for four days. During this period, water was given freely. Blood was sampled from orbital venous plexus and components were analyzed using the plasma separated from the blood. Total cholesterol levels were determined by using L type Wako Cholesterol (Wako Pure Chemical Industries, Ltd). Precipitation reagent for HDL cholesterol (Wako Pure Chemical Industries, Ltd.) was added to a part of the plasma to precipitate non-HDL lipoprotein, and cholesterol (HDL cholesterol) in the resulting supernatant was determined. The plasma anti-arteriosclerosis index [(HDL cholesterol/total cholesterol)×100] was calculated by using these cholesterol levels.
In the Table, “Total cholesterol lowering action (%)” represents the percent reduction (%) of total cholesterol level in the test compound administration group, when the total cholesterol level in the test compound non-administration group is taken as 100%. “Plasma anti-arteriosclerosis index-enhancing action (%)” represents the percent increase (%) of plasma anti-arteriosclerosis index in the test compound administration group, when the plasma anti-arteriosclerosis index in the test compound non-administration group is taken as 100%.

[1] = percent reduction of plasma glucose level vs non-administration group, read-out: hypoglycemic action (%)
[2] = percent reduction of plasma triglyceride level vs non-administration group, read-out: hypolipidemic action (%)

| SMILES | inhibition in vivo at 0.005 % (KKAY mice; [1]) | inhibition in vivo at 0.005 % (KKAY mice; [2]) | change in vivo at 0.005 % (KKA^y mice) | inhibition in vivo at 0.005 % (KKA^y mice) | melting point | inhibition in vivo at 0.01 % (KKAY mice; [1]) | inhibition in vivo at 0.01 % (KKAY mice; [2]) | change in vivo at 0.01 % (KKA^y mice) | inhibition in vivo at 0.01 % (KKA^y mice) |
| --- | --- | --- | --- | --- | --- | --- | --- | --- | --- |
| Cc1oc(-c2ccc3ccccc3c2)nc1COc1ccc(COc2ncccc2CC(=O)O)cc1 [Example 130, 2-[2-[4-[5-methyl-2-(2-naphthyl)-4-oxazolylmethoxy]benzyloxy]-3-pyridyl]acetic acid] | 55% | 63% | 15% | 16% | 155 to 156 °C |  |  |  |  |
| Cc1oc(-c2ccccc2)nc1COc1ccc(COc2cccc(CC(=O)O)c2)cc1 [Example 1, 2-[3-[4-[(5-methyl-2-phenyl-4-oxazolyl)methoxy]benzyloxy]phenyl]acetic acid] | 21% | 33% | 11% | 7% | 159 to 160 °C |  |  |  |  |
| CCOc1ccc(OCc2ccc(OCc3nc(-c4ccccc4)oc3C)cc2)c(CC(=O)O)c1 [Example 26, 2-[5-ethoxy-2-[4-[(5-methyl-2-phenyl-4-oxazolyl)methoxy]benzyloxy]phenyl]acetic acid] |  |  |  |  | 122 to 123 °C | 53% | 88% | 16% | 20% |
| Cc1oc(-c2ccccc2)nc1COc1ccc(COc2ccc(Cl)cc2CC(=O)O)cc1 [Example 18, 2-[5-chloro-2-[4-[(5-methyl-2-phenyl-4-oxazolyl)methoxy]benzyloxy]phenyl]acetic acid] | 41% | 34% | 12% | 23% | 160 to 161 °C |  |  |  |  |
| CCOc1ccc(OCc2ccc(OCc3nc(-c4ccccc4)oc3C)cc2)cc1CCC(=O)O [Example 7, 3-[2-ethoxy-5-[4-[(5-methyl-2-phenyl-4-oxazolyl)methoxy]benzyloxy]phenyl]propionic acid] |  |  |  |  | 129 to 130 °C | 48% | 62% | 15% | 17% |
| Cc1ccc(OCc2ccc(OCc3nc(-c4ccccc4)oc3C)cc2)c(CC(=O)O)c1 [Example 15, 2-[5-methyl-2-[4-[(5-methyl-2-phenyl-4-oxazolyl)methoxy]benzyloxy]phenyl]acetic acid] | 49% | 60% | 4% | 25% | 115 to 116 °C |  |  |  |  |
| Cc1oc(-c2ccccc2)nc1COc1cc(COc2ncccc2CC(=O)O)on1 [Example 129, 2-[2-[[3-[(5-methyl-2-phenyl-4-oxazolyl)methoxy]-5-isoxazolyl]methoxy]-3-pyridyl]acetic acid] | 45% | 93% | 25% | 14% | 129 to 130 °C |  |  |  |  |
| Cc1oc(-c2ccccc2)nc1COc1ccc(COc2ncccc2CC(=O)O)cn1 [Example 88, 2-[2-[[6-[(5-methyl-2-phenyl-4-oxazolyl)methoxy]-3-pyridyl]methoxy]-3-pyridyl]acetic acid] | 47% | 90% | 22% | 10% | 147 to 148 °C |  |  |  |  |
| Cc1oc(-c2ccccc2)nc1CCOc1ccc(COc2ccccc2CC(=O)O)cc1 [Example 58, 2-[2-[4-[2-(5-methyl-2-phenyl-4-oxazolyl)ethoxy]benzyloxy]phenyl]acetic acid] | 57% | 75% | 21% | 20% | 141 to 142 °C |  |  |  |  |
